From ChEMBL document CHEMBL4270553, “Synthesis and anticancer activity of new dihydropyrimidinone derivatives” (Eur J Med Chem, 2018)

Legend:
HeLa = experiment: Cytotoxicity against human HeLa cells; assay type: functional, cell-based
[1] = target: Vascular endothelial growth factor receptor 2 (Homo sapiens, UniProt P35968)
Description: Inhibition of human VEGFR-2 incubated for 2.5 hrs by ELISA

MCF7 [2] = experiment: Cytotoxicity against human MCF7 cells after 24 hrs by MTT assay; assay type: functional, cell-based; conditions: MCF7, 24 h
BJ = experiment: Cytotoxicity against human BJ cells; assay type: cell-based
[3] = Cytotoxicity against human WPE1-NA22 cells; assay type: cell-based
HCT-116 [4] = experiment: cells; conditions: Homo sapiens, HCT-116, 24 h
Description: Cytotoxicity against human HCT116 cells after 24 hrs by MTT assay

PC-3 [5] = experiment: cells; conditions: Homo sapiens, PC-3, 24 h
Description: Cytotoxicity against human PC3 cells after 24 hrs by MTT assay

[6] = target: T1, Serine/threonine-protein kinase mTOR (Homo sapiens, UniProt P42345); experiment: Inhibition of mTOR (unknown origin) incubated for 1 hr by ELISA relative to control; conditions: concentration not given here
[7] = target: T1, Serine/threonine-protein kinase mTOR; experiment: Inhibition of mTOR (unknown origin) incubated for 1 hr by ELISA
MRC5 = experiment: Cytotoxicity against human MRC5 cells; assay type: cell-based
LOX IMVI = experiment: Antiproliferative activity against human LOXIMVI cells assessed as growth inhibition at 10 uM after 48 hrs by sulforhodamine B assay relative to control; assay type: functional; conditions: read-out: GI
ACHN = experiment: Antiproliferative activity against human ACHN cells assessed as growth inhibition at 10 uM after 48 hrs by sulforhodamine B assay relative to control; assay type: functional; conditions: read-out: GI
UACC-62 = experiment: Antiproliferative activity against human UACC62 cells assessed as growth inhibition at 10 uM after 48 hrs by sulforhodamine B assay relative to control; assay type: functional; conditions: UACC-62, 48 h, read-out: GI
HL-60(TB) = experiment: Antiproliferative activity against human HL-60(TB) cells assessed as growth inhibition at 10 uM after 48 hrs by sulforhodamine B assay relative to control; assay type: functional; conditions: HL-60, 48 h, read-out: GI
HCT-116 [8] = experiment: Antiproliferative activity against human HCT116 cells assessed as growth inhibition at 10 uM after 48 hrs by sulforhodamine B assay relative to control; assay type: functional; conditions: HCT-116, 48 h, read-out: GI
SF-295 = experiment: Antiproliferative activity against human SF295 cells assessed as growth inhibition at 10 uM after 48 hrs by sulforhodamine B assay relative to control; assay type: functional; conditions: SF-295, 48 h, read-out: GI
PC-3 [9] = experiment: Antiproliferative activity against human PC3 cells assessed as growth inhibition at 10 uM after 48 hrs by sulforhodamine B assay relative to control; assay type: functional; conditions: PC-3, 48 h, read-out: GI
SR = experiment: Antiproliferative activity against human SR cells assessed as growth inhibition at 10 uM after 48 hrs by sulforhodamine B assay relative to control; assay type: functional; conditions: read-out: GI
HCT-15 = experiment: Antiproliferative activity against human HCT15 cells assessed as growth inhibition at 10 uM after 48 hrs by sulforhodamine B assay relative to control; assay type: functional; conditions: HCT-15, 48 h, read-out: GI
NCI-H522 = experiment: Antiproliferative activity against human NCI-H522 cells assessed as growth inhibition at 10 uM after 48 hrs by sulforhodamine B assay relative to control; assay type: functional; conditions: NCI-H522, 48 h, read-out: GI
SK-MEL-5 = experiment: Antiproliferative activity against human SK-MEL-5 cells assessed as growth inhibition at 10 uM after 48 hrs by sulforhodamine B assay relative to control; assay type: functional; conditions: SK-MEL-5, 48 h, read-out: GI
NCI-H460 = experiment: Antiproliferative activity against human NCI-H460 cells assessed as growth inhibition at 10 uM after 48 hrs by sulforhodamine B assay relative to control; assay type: functional; conditions: NCI-H460, 48 h, read-out: GI
T47D = experiment: Antiproliferative activity against human T47D cells assessed as growth inhibition at 10 uM after 48 hrs by sulforhodamine B assay relative to control; assay type: functional; conditions: read-out: GI
UO-31 = experiment: Antiproliferative activity against human UO31 cells assessed as growth inhibition at 10 uM after 48 hrs by sulforhodamine B assay relative to control; assay type: functional; conditions: UO-31, 48 h, read-out: GI
NCI/ADR-RES = experiment: Antiproliferative activity against human NCI/ADR-RES cells assessed as growth inhibition at 10 uM after 48 hrs by sulforhodamine B assay relative to control; assay type: functional; conditions: read-out: GI
A549 = experiment: Antiproliferative activity against human A549/ATCC cells assessed as growth inhibition at 10 uM after 48 hrs by sulforhodamine B assay relative to control; assay type: functional; conditions: A549, 48 h, read-out: GI
CAKI-1 = experiment: Antiproliferative activity against human Caki1 cells assessed as growth inhibition at 10 uM after 48 hrs by sulforhodamine B assay relative to control; assay type: functional; conditions: CAKI-1, 48 h, read-out: GI
OVCAR-4 = experiment: Antiproliferative activity against human OVCAR4 cells assessed as growth inhibition at 10 uM after 48 hrs by sulforhodamine B assay relative to control; assay type: functional; conditions: OVCAR-4, 48 h, read-out: GI
MDA-MB-468 = experiment: Antiproliferative activity against human MDA-MB-468 cells assessed as growth inhibition at 10 uM after 48 hrs by sulforhodamine B assay relative to control; assay type: functional; conditions: MDA-MB-468, 48 h, read-out: GI
NCI-H322M = experiment: Antiproliferative activity against human NCI-H322M cells assessed as growth inhibition at 10 uM after 48 hrs by sulforhodamine B assay relative to control; assay type: functional; conditions: read-out: GI
K562 = experiment: Antiproliferative activity against human K562 cells assessed as growth inhibition at 10 uM after 48 hrs by sulforhodamine B assay relative to control; assay type: functional; conditions: K562, 48 h, read-out: GI
MCF7 [10] = experiment: Antiproliferative activity against human MCF7 cells assessed as growth inhibition at 10 uM after 48 hrs by sulforhodamine B assay relative to control; assay type: functional; conditions: MCF7, 48 h, read-out: GI
MOLT-4 = experiment: Antiproliferative activity against human MOLT4 cells assessed as growth inhibition at 10 uM after 48 hrs by sulforhodamine B assay relative to control; assay type: functional; conditions: MOLT-4, 48 h, read-out: GI

Sequence of Vascular endothelial growth factor receptor 2 (P35968 whole entry): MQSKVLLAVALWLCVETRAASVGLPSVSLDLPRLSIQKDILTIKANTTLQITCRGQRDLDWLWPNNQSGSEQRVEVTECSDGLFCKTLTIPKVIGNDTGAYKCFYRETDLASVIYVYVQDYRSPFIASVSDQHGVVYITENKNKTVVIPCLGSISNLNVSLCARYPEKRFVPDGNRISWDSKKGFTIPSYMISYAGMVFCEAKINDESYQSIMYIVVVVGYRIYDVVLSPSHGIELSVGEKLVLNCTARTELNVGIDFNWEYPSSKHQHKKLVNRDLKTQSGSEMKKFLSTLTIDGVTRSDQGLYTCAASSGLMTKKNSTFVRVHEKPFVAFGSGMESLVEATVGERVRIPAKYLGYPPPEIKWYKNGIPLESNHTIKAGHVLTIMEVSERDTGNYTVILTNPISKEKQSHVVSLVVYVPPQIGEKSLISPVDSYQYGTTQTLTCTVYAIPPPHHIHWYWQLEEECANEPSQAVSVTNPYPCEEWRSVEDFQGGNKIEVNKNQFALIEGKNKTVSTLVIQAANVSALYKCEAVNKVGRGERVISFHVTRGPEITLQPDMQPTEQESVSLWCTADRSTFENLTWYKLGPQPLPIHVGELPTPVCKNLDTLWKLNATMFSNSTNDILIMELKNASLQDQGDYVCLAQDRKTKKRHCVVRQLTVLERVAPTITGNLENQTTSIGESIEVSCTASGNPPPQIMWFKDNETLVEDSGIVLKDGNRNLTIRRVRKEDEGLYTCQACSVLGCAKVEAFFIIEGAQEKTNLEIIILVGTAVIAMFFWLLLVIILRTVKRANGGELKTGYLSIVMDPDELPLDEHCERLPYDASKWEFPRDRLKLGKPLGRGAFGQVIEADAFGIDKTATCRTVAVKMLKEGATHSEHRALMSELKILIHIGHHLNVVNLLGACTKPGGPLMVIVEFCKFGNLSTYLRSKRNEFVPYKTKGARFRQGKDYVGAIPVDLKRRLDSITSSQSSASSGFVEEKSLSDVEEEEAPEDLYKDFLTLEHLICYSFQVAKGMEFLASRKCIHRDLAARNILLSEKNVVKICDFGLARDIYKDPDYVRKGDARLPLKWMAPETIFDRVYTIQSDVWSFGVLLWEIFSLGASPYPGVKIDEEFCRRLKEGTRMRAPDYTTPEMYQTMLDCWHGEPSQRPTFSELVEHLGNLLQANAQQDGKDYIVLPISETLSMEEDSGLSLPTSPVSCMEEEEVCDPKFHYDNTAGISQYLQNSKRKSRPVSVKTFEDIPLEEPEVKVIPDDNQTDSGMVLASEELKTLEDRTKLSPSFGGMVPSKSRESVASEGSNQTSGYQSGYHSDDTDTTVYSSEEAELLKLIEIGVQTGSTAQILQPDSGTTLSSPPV

Work on `CNC(=O)c1cc(Oc2ccc(NC(=O)Nc3ccc(Cl)c(C(F)(F)F)c3)cc2)ccn1` [SORAFENIB] yielded an IC50 (HeLa) of 0.64 µM.

`CCOC(=O)C1=C(CSc2nc3cc([N+](=O)[O-])ccc3[nH]2)N(C)C(=O)NC1c1ccccc1` (centres undefined) gave an IC50 [1] of 1.2 µM, an IC50 (MCF7 [2]) of 9.39 µM and an IC50 (HeLa) of 1.4 µM. It also gave an IC50 (BJ) of 37.5 µM, an IC50 [3] of 21.7 µM and an IC50 (HCT-116 [4]) of 7.29 µM. For the same molecule, the IC50 (PC-3 [5]) was 9.18 µM, the inhibition [6] was 84.6% and the IC50 [7] was 0.72 µM. It also gave an IC50 (MRC5) of 44.2 µM.

Molecule `CCOC(=O)C1=C(CSC(=S)N2CCCCC2)N(C)C(=O)NC1c1ccccc1` (centres undefined) has an inhibition of growth at 10 µM (LOX IMVI) of 11%, an inhibition of growth at 10 µM (ACHN) of 15% and an inhibition of growth at 10 µM (UACC-62) of 28%. The inhibition of growth at 10 µM (HL-60(TB)) was 33%, the inhibition of growth at 10 µM (HCT-116 [8]) was 34% and the inhibition of growth at 10 µM (SF-295) was 13%. The inhibition of growth at 10 µM (PC-3 [9]) was 27%, the inhibition of growth at 10 µM (SR) was 27% and the inhibition of growth at 10 µM (HCT-15) was 35%. For the same molecule, the inhibition of growth at 10 µM (NCI-H522) was 25%, the inhibition of growth at 10 µM (SK-MEL-5) was 25% and the inhibition of growth at 10 µM (NCI-H460) was 10%. For the same molecule, the inhibition of growth at 10 µM (T47D) was 45%, the inhibition of growth at 10 µM (UO-31) was 29% and the inhibition of growth at 10 µM (NCI/ADR-RES) was 12%. It also gave an inhibition of growth at 10 µM (A549) of 29%, an inhibition of growth at 10 µM (CAKI-1) of 17% and an inhibition of growth at 10 µM (OVCAR-4) of 16%. For the same molecule, the inhibition of growth at 10 µM (MDA-MB-468) was 20%, the inhibition of growth at 10 µM (NCI-H322M) was 15% and the inhibition of growth at 10 µM (K562) was 20%. For the same molecule, the inhibition of growth at 10 µM (MCF7 [10]) was 12% and the inhibition of growth at 10 µM (MOLT-4) was 30%.
